Results reported in patent publication US20060069132A1, “Azolecarboxamide herbicides” (priority 2004, published 2006).

Assays:
[1] = test system: small flower umbrella sedge; assay: Test B flooded paddy test; type: in vivo, Cyperus difformis; settings: 1000 g ai/ha, scale 0 to 100 (0 no effect, 100 complete control)
Procedure, shortened: (§1)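 Greenhouse test; postemergence application to plants at 1–4 leaves (2–18 cm); paddy species at 2 leaves; evaluated visually vs controls at 13–15 days; scale 0–100 (100 = complete control).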

cocklebur = assay: Test B pre-/postemergence herbicide test; type: in vivo, Xanthium strumarium; settings: for Cocklebur plant response rating: postemergence
Procedure, shortened: (§2)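 Greenhouse pot assay with simultaneous preemergence (treated seed) and postemergence (2–18 cm seedlings) applications of surfactant-containing, non-phytotoxic solvent formulations. Response scored visually 13–15 days later on a 0–100 scale, 100 meaning complete control.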

giant foxtail = assay: Test B pre-/postemergence herbicide test; type: in vivo, Setaria faberi; settings: for Foxtail, Giant plant response rating: postemergence
Procedure, shortened: (§3)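 Plants compared with untreated controls 13–15 days post-treatment and given a visual 0–100 injury score. Applications: preemergence to seeds; postemergence at 1- to 4-leaf (2–18 cm); paddy species flooded, 2-leaf stage. Vehicle non-phytotoxic, surfactant included.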

wild oat = assay: Test B postemergence herbicide test; type: in vivo, Avena fatua; settings: postemergence
Procedure, shortened: (§4)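 Read-out: visual comparison with controls, scored 0 to 100, where 100 means complete control and 0 no effect. Formulated chemicals were applied postemergence to plants 2–18 cm tall (1- to 4-leaf), or to flooded-paddy plants at the 2-leaf stage, then held 13 to 15 days under glass.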

morningglory = assay: Test B pre-/postemergence herbicide test; type: in vivo, Ipomoea coccinea; settings: for Morningglory plant response rating: postemergence
Procedure, shortened: as §2

velvetleaf = assay: Test B pre-/postemergence herbicide test; type: in vivo, Abutilon theophrasti; settings: for Velvetleaf plant response rating: postemergence
Procedure, shortened: as §3

rice [2] = assay: Test B flooded paddy test; type: in vivo, Oryza sativa; settings: 1000 g ai/ha, scale 0 to 100 (0 no effect, 100 complete control)
Procedure, shortened: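 Formulated test chemicals went onto postemergence plants measuring 2 to 18 cm, at one to four leaves. For the paddy assay, species had reached two leaves. Scoring took place 13–15 days later by eye, relative to untreated plants, using 0 for no effect up to 100 for full control.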

Surinam grass = assay: Test B pre-/postemergence herbicide test; type: in vivo, Urochloa decumbens; settings: for Surinam Grass plant response rating: postemergence
Procedure, shortened: as §3

blackgrass = assay: Test B postemergence herbicide test; type: in vivo, Alopecurus myosuroides; settings: postemergence
Procedure, shortened: as §1

large crabgrass = assay: Test B pre-/postemergence herbicide test; type: in vivo, Digitaria sanguinalis; settings: for Crabgrass, Large plant response rating: postemergence
Procedure, shortened: as §3

ducksalad [3] = assay: Test C flooded paddy test; type: in vivo, Heteranthera limosa
barnyardgrass [4] = assay: Test B flooded paddy test; type: in vivo, Echinochloa crus-galli; settings: 1000 g ai/ha, scale 0 to 100 (0 no effect, 100 complete control)
Procedure, shortened: as §1

rice [5] = assay: Test C flooded paddy test; type: in vivo, Oryza sativa
Procedure, shortened: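 Postemergence sprays applied to plants 2 to 18 cm tall (1- to 4-leaf stage); paddy species grown to 2-leaf stage under flooding. After 12 to 14 days in greenhouse, visual rating versus untreated controls on 0–100 scale (0 no effect, 100 complete control).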

barnyardgrass [6] = assay: Test B pre-/postemergence herbicide test; type: in vivo, Echinochloa crus-galli; settings: for Barnyardgrass plant response rating: postemergence
Procedure, shortened: as §2

ducksalad [7] = assay: Test B flooded paddy test; type: in vivo, Heteranthera limosa; settings: 1000 g ai/ha, scale 0 to 100 (0 no effect, 100 complete control)
Procedure, shortened: as §1

pigweed = assay: Test B pre-/postemergence herbicide test; type: in vivo, Amaranthus retroflexus; settings: for Pigweed plant response rating: postemergence
Procedure, shortened: as §3

corn = assay: Test B pre-/postemergence herbicide test; type: in vivo, Zea mays; settings: for Corn plant response rating: postemergence
Procedure, shortened: as §3

barnyardgrass [8] = assay: Test C flooded paddy test; type: in vivo, Echinochloa crus-galli
Procedure, shortened: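 Postemergence sprays were applied to plants 2 to 18 cm tall (1- to 4-leaf stage); in the flooded paddy test, barnyardgrass was grown to the 2-leaf stage. After 12 to 14 days in a greenhouse, injury was visually rated against untreated controls on a 0–100 scale (100 = complete control).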

wheat = assay: Test B postemergence herbicide test; type: in vivo, Triticum aestivum; design: key to Wheat plant response rating: 0 = no effect, 100 = complete control; settings: postemergence
Procedure, shortened: as §4

lambsquarters = assay: Test B pre-/postemergence herbicide test; type: in vivo, Chenopodium album; settings: for Lambsquarters plant response rating: postemergence
Procedure, shortened: as §3

[9] = test system: smallflower umbrella sedge; assay: Test C flooded paddy test; type: in vivo, Cyperus difformis
[10] = 125 g ai/ha, 0 is no effect, 100 is complete control, preemergence
[11] = 125 g ai/ha, visual rating, scale 0 (no effect) to 100 (complete control)
[12] = 500 g ai/ha, visual rating, 0 = no effect, 100 = complete control, preemergence
[13] = 500 g ai/ha, scale 0 to 100, 0 is no effect, 100 is complete control
[14] = 125 g ai/ha, scale 0 to 100 (0 no effect, 100 complete control)
[15] = 250 g ai/ha, scale of 0 to 100, 0 is no effect, 100 is complete control
[16] = 500 g ai/ha, visual rating after 12 to 14 days, scale 0 to 100 (0 no effect, 100 complete control)

CCNC(=S)c1ccc(F)c(NC(=O)c2cc(C(C)(C)C)nn2CC)c1 [Compound 349]
Sedge, Umbrella plant response rating [1]: 80
Plant response rating (0 to 100 scale), Cocklebur (cocklebur; [10]): 0
Cocklebur plant response rating (cocklebur; [11]): 0
Plant response rating, Cocklebur (cocklebur; [12]): 80
Cocklebur plant response rating (cocklebur; [13]): 20
Plant response rating (0 to 100 scale), Foxtail, Giant (giant foxtail; [10]): 70
Foxtail, Giant plant response rating (giant foxtail; [11]): 0
Plant response rating, Foxtail, Giant (giant foxtail; [12]): 100
Foxtail, Giant plant response rating (giant foxtail; [13]): 30
Oat, Wild plant response rating (wild oat; [11]): 10
Oat, Wild plant response rating (wild oat; [13]): 40
Plant response rating (0 to 100 scale), Morningglory (morningglory; [10]): 0
Morningglory plant response rating (morningglory; [11]): 0
Plant response rating, Morningglory (morningglory; [12]): 30
Morningglory plant response rating (morningglory; [13]): 50
Plant response rating (0 to 100 scale), Velvetleaf (velvetleaf; [10]): 30
Velvetleaf plant response rating (velvetleaf; [11]): 0
Velvetleaf plant response rating (velvetleaf; [13]): 40
Rice plant response rating (rice [2]): 70
Plant response rating (0 to 100 scale), Surinam Grass (Surinam grass; [10]): 50
Surinam Grass plant response rating (Surinam grass; [11]): 0
Plant response rating, Surinam Grass (Surinam grass; [12]): 90
Surinam Grass plant response rating (Surinam grass; [13]): 20
Blackgrass plant response rating (blackgrass; [11]): 20
Blackgrass plant response rating (blackgrass; [13]): 80
Plant response rating (0 to 100 scale), Crabgrass, Large (large crabgrass; [10]): 100
Crabgrass, Large plant response rating (large crabgrass; [11]): 20
Plant response rating, Crabgrass, Large (large crabgrass; [12]): 100
Crabgrass, Large plant response rating (large crabgrass; [13]): 20
Ducksalad plant response rating (ducksalad [3]; 62 g ai/ha, scale 0 to 100): 80
Ducksalad plant response rating (ducksalad [3]; [14]): 85
Ducksalad plant response rating (ducksalad [3]; [15]): 85
Plant response rating, Ducksalad (ducksalad [3]; [16]): 95
Barnyardgrass plant response rating (barnyardgrass [4]): 80
Rice plant response rating (rice [5]; 62 g ai/ha, scale 0 to 100): 50
Rice plant response rating (rice [5]; [14]): 55
Rice plant response rating (rice [5]; [15]): 60
Plant response rating, Rice (rice [5]; [16]): 70
Plant response rating (0 to 100 scale), Barnyardgrass (barnyardgrass [6]; [10]): 80
Barnyardgrass plant response rating (barnyardgrass [6]; [11]): 0
Plant response rating, Barnyardgrass (barnyardgrass [6]; [12]): 100
Barnyardgrass plant response rating (barnyardgrass [6]; [13]): 10
Ducksalad plant response rating (ducksalad [7]): 90
Plant response rating (0 to 100 scale), Pigweed (pigweed; [10]): 100
Pigweed plant response rating (pigweed; [11]): 0
Plant response rating, Pigweed (pigweed; [12]): 100
Pigweed plant response rating (pigweed; [13]): 70
Plant response rating (0 to 100 scale), Corn (corn; [10]): 70
Corn plant response rating (corn; [11]): 0
Plant response rating, Corn (corn; [12]): 80
Corn plant response rating (corn; [13]): 10
Barnyardgrass plant response rating (barnyardgrass [8]; 62 g ai/ha, scale 0 to 100 (0 no effect, 100 complete control)): 45
Barnyardgrass plant response rating (barnyardgrass [8]; [14]): 70
Barnyardgrass plant response rating (barnyardgrass [8]; [15]): 90
Plant response rating, Barnyardgrass (barnyardgrass [8]; [16]): 95
Wheat plant response rating (wheat; [11]): 0
Wheat plant response rating (wheat; [13]): 10
Plant response rating (0 to 100 scale), Lambsquarters (lambsquarters; [10]): 100
Lambsquarters plant response rating (lambsquarters; [11]): 0
Plant response rating, Lambsquarters (lambsquarters; [12]): 100
Lambsquarters plant response rating (lambsquarters; [13]): 80
Sedge, Umbrella plant response rating ([9]; 62 g ai/ha, scale 0 to 100): 80
Sedge, Umbrella plant response rating [9, 14]: 85
Sedge, Umbrella plant response rating [9, 15]: 90
Plant response rating, Sedge, Umbrella [9, 16]: 95
